# Changes are numbered by the printed parent chain. Where “and” joins values, the source holds several entries; their conditions need not be identical. Equal entries are not always repeated.
# Experiments:
# PfCRT variant D338A = target: T1, PfCRT variant D338A (Plasmodium falciparum, UniProt Q9N623, A220S/D338A/I356T/K76T/M74I/N326S/N75E/Q271E/R371I); test: CQ uptake assay, oocytes expressing D338A; type: cell-based
# T1 sequence (Q9N623 1-424 M74I/N75E/K76T/A220S/Q271E/N326S/D338A/I356T/R371I): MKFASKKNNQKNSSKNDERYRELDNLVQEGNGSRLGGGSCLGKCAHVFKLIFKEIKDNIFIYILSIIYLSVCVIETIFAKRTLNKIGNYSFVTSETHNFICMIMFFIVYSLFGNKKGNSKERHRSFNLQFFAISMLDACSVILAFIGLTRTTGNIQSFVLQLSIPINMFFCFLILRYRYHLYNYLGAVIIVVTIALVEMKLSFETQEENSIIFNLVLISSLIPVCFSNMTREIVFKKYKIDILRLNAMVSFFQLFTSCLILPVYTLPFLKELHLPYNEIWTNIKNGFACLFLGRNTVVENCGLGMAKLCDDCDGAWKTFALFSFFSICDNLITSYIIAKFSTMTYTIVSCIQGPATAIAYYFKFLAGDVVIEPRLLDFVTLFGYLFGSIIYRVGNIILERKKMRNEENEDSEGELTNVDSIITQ
# Experimental: (§1) Site-directed mutagenesis of PfCRT^Dd2 was performed as described using the megaprimer method with overlap extension[21],[54]. The primer pairs used are listed in Supplementary Table 6. Please note that a codon-optimized and oocyte-adapted version of PfCRT^Dd2 was used[22] (Supplementary Fig. 16). The resulting DNA fragment was cloned into the SP64T expression vector and verified by sequencing.
# (§2) Oocytes were obtained as described previously. Briefly, adult (>2 years old) female X. laevis frogs (NASCO) were anesthetized in a cooled solution of ethyl 3-amino benzoate methanesulfonate (0.1%, w/v), followed by a surgical removal of parts of the ovary. The ovary lobes were carefully dissected and small pieces of oocytes were incubated in Ca^2+-free ND96 buffer (96 mM NaCl, 2 mM KCl, 1 mM MgCl2 buffered with 5 mM HEPES/NaOH, pH 7.5) supplemented with collagenase D (0.1%, w/v; Roche), BSA (0.5%, w/v), and 9 mm Na2HPO4 at 18 °C for 14-16 h while gentle shaking. After incubation, the oocytes were carefully washed several times with ND96 buffer (96 mM NaCl, 2 mM KCl, 1.8 mM CaCl2, 1 mM MgCl2 buffered with 5 mM HEPES/NaOH, pH 7.5) supplemented with 100 mg l^−1 gentamycin). Defolliculated and healthy-looking stage V-VI oocytes were manually selected for RNA microinjection. The RNA was generated as following: The codon-optimized sequences of PfCRT variants were cloned into the pSP64T expression vector. After vector linearization using the restriction endonucleases BamHI or SalI (New England Biolabs), transcription was performed using the in vitro SP6 mMessage mMachine Kit (Ambion)[34]. The obtained RNA was kept at −80 °C and diluted with nuclease-free water to a concentration of 0.6 μg μl^−1. Precision-bore glass capillary tubes (3.5-inch glass capillaries; Drummond Scientific Co.) were pulled on a vertical puller (P-87 Flaming/Brown micropipette puller, Sutter Instrument Co.), graduated, and placed on a microinjector (Nanoject II Auto-Nanoliter Injector, Drummond Scientific Co.). 50 nl of nuclease-free water alone (control oocytes) or 50 nl of 0.6 μg μl^−1 RNA were injected under stereomicroscopic control. Injected oocytes were incubated for 46–72 h at 18 °C with twice-daily buffer changes before usage in experiments.
# (§3) Drug uptake assays were performed as described previously[21],[22],[24],[34]. […] The direction of radio-labeled drug transport is here from the mostly acidic extracellular solution (pH 4.5 or 6.0, as indicated) into the oocyte cytosol (pH ∼ 7.2), which corresponds to the efflux of drug from the acidic digestive vacuole (pH 5.2) into the parasite cytoplasm (pH 7.2). The topology of PfCRT in the oolemma is such that both the N- and C-terminus face the extracellular milieu[3],[22]. In the parasite, the N- and C-terminus face the lumen of the digestive vacuole. CQ uptake kinetics were performed by incubating oocytes in ND96 buffer adjusted to a pH of 4.5, 5.0, 5.5, or 6.0 and supplemented with 50 nM [^3H]CQ and one of 7 different CQ concentrations (10 µM, 50 µM, 100 µM, 200 µM, 300 µM, 400 µM, 500 µM CQ). The reaction was stopped at the 60 min time point, which is in the linear uptake range[22],[34] (Supplementary Fig. 17). For determination of the amount of drug uptake for each oocyte, the reaction medium was removed and the oocytes were washed three times with 2 ml of ice-cold ND96 buffer. Each oocyte was individually transferred to a scintillation vial containing 5% sodium dodecyl sulfate (200 μl) for lysis. The radioactivity of each sample was measured using a liquid scintillation analyzer Tri-Carb 4910 TR (PerkinElmer). Oocytes that were injected with water instead of RNA were analyzed in parallel, representing the uptake of a drug by diffusion and/or endogenous permeation pathways. The resulting value represents the “background“ level of drug accumulation in oocytes (in-depth discussion in[22]). […]
# PfCRT variant F287A = target: T2, PfCRT variant F287A (Plasmodium falciparum, UniProt Q9N623, A220S/F287A/I356T/K76T/M74I/N326S/N75E/Q271E/R371I); test: CQ uptake assay, oocytes expressing F287A; type: cell-based
# T2 sequence (Q9N623 1-424 M74I/N75E/K76T/A220S/Q271E/F287A/N326S/I356T/R371I): T1 sequence (Q9N623 1-424 M74I/N75E/K76T/A220S/Q271E/N326S/D338A/I356T/R371I) with F287A, A338D
# Experimental: as §1, §2, §3
# [1] = D338A, 50 µM CQ, 1 h, mean ± SEM
# [2] = pH 4.5, single replicates, Fig 1d left
# [3] = pH 6.0, single replicates, Fig 1d left
# [4] = F287A, 50 µM CQ, 1 h, mean ± SEM
smiles,measurement,setting,value
"CCN(CC)CCCC(C)Nc1ccnc2cc(Cl)ccc12 (stereo not drawn) [CQ, chloroquine]",Activity at pH 4.5,PfCRT variant D338A; [1],2.35 ± 0.19 pmol h-1 oocyte-1
same,Activity at pH 6.0,PfCRT variant D338A; [1],5.20 ± 0.52 pmol h-1 oocyte-1
same,R-value,"PfCRT variant D338A; D338A, CQ transport at pH 4.5 / pH 6.0",0.47 ± 0.06
same,D338A transport activity pH 4.5,PfCRT variant D338A; [2],2.81 pmol oocyte-1 h-1 and 2.11 pmol oocyte-1 h-1 and 2.14 pmol oocyte-1 h-1
same,D338A R-value,"PfCRT variant D338A; pH 4.5 vs pH 6.0, Fig 1d left",0.58 and 0.33 and 0.49
same,D338A transport activity pH 6.0,PfCRT variant D338A; [3],4.85 pmol oocyte-1 h-1 and 6.43 pmol oocyte-1 h-1 and 4.33 pmol oocyte-1 h-1
same,Activity at pH 4.5,PfCRT variant F287A; [4],1.50 ± 0.05 pmol h-1 oocyte-1
same,Activity at pH 6.0,PfCRT variant F287A; [4],4.71 ± 0.24 pmol h-1 oocyte-1
same,R-value,"PfCRT variant F287A; F287A, CQ transport at pH 4.5 / pH 6.0",0.32 ± 0.02
same,F287A transport activity pH 4.5,PfCRT variant F287A; [2],1.56 pmol oocyte-1 h-1 and 1.62 pmol oocyte-1 h-1 and 1.49 pmol oocyte-1 h-1 and 1.34 pmol oocyte-1 h-1
same,F287 R-value,"PfCRT variant F287A; pH 4.5 vs pH 6.0, Fig 1d left",0.32 and 0.33 and 0.38 and 0.26
same,F287A transport activity pH 6.0,PfCRT variant F287A; [3],4.84 pmol oocyte-1 h-1 and 4.98 pmol oocyte-1 h-1 and 3.89 pmol oocyte-1 h-1 and 5.12 pmol oocyte-1 h-1
